Source: US9056876B2, “Substituted 1H-pyrazolo[3′,4′,4,5]thieno[2,3-b]pyridin-3-amine analogs as positive allosteric modulators of the muscarinic acetylcholine receptor M4” (VANDERBILT UNIVERSITY, priority 2011, dated 2015)

Target: T1, mAChR M4 (UniProt P08173)
T1 construct: hM1 and hM4 cDNAs were purchased from Missouri S&T cDNA Resource
T1 sequence (P08173 1-479): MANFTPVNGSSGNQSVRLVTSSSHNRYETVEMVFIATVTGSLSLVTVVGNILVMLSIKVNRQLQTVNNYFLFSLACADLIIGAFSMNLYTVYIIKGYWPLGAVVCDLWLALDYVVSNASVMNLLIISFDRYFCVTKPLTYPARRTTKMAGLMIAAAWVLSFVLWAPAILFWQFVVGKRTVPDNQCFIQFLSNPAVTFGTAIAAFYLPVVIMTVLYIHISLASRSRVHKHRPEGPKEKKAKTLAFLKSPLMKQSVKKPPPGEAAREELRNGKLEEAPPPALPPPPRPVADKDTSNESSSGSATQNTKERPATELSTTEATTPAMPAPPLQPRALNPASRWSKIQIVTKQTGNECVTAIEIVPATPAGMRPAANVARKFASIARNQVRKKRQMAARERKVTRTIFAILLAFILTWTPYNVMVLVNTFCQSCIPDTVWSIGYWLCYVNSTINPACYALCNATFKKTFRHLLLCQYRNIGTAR
Test: mAChR M4 cell-based functional assay (calcium mobilization, Fluo-4, FDSS)
Conditions: for Emax (%)*: % ACh maximum at 30 μM; for pEC50: positive allosteric modulator activity, EC20 acetylcholine response; for pEC50 / EC50: CHO-K1 cells; for EC50: positive allosteric modulator activity: concentration-dependent increase in the EC20 acetylcholine response, >10 μM estimated for low potency (no plateau)
Summary of the method: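 Compound responses (11-point, 1:3 series) were followed as calcium fluorescence ratio on FDSS in Gqi5-coupled M4 CHO-K1 cells (human or rat) loaded with Fluo-4. Acetylcholine followed at EC20 (144 s) then EC80 (230 s). EC50/Emax from four-parameter logistic fits of direct, EC20-potentiating or EC80-inhibiting effects.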

| Structure (SMILES) | Emax (%)* [%] | pEC50 | EC50 [µM] |
| --- | --- | --- | --- |
| Cc1ccnc2sc3c(NCc4ccccc4)nn(C)c3c12 [Compound 68, N-benzyl-1,8-dimethyl-1H-pyrazolo[3′,4′:4,5]thieno[2,3-b]pyridin-3-amine] | 75 | 6.24 | 0.58 |
| Cc1ccc2c(n1)sc1c(NC(C)C)nn(C)c12 [Compound 70, N-isopropyl-1,6-dimethyl-1H-pyrazolo[3′,4′:4,5]thieno[2,3-b]pyridin-3-amine] | 62 | <5.00 | > 10 |
| Cc1cc(C)c2c(n1)sc1c(NC3CCSC3)nn(C)c12 (stereo not drawn) [Compound 73, 1,6,8-trimethyl-N-(tetrahydrothiophen-3-yl)-1H-pyrazolo[3′,4′:4,5]thieno[2,3-b]pyridin-3-amine] | 84 | 7.06 | 0.087 |
| Cc1cc(C)c2c(n1)sc1c(NCc3cccnc3)nn(C)c12 [Compound 76, 1,6,8-trimethyl-N-(pyridin-3-ylmethyl)-1H-pyrazolo[3′,4′:4,5]thieno[2,3-b]pyridin-3-amine] | 68 | 6.66 | 0.22 |
| Cc1cc(C)c2c(n1)sc1c(NCc3ccccn3)nn(C)c12 [Compound 77, 1,6,8-trimethyl-N-(pyridin-2-ylmethyl)-1H-pyrazolo[3′,4′:4,5]thieno[2,3-b]pyridin-3-amine] | 55 | 6.27 | 0.54 |
| Cc1cc(C)c2c(n1)sc1c(NCc3ccc(C)o3)nn(C)c12 [Compound 78, 1,6,8-trimethyl-N-((5-methylfuran-2-yl)methyl)-1H-pyrazolo[3′,4′:4,5]thieno[2,3-b]pyridin-3-amine] | 84 | 7.05 | 0.09 |
| Cc1cc(C)c2c(n1)sc1c(NCc3ccc(Cl)o3)nn(C)c12 [Compound 79, N-((5-chlorofuran-2-yl)methyl)-1,6,8-trimethyl-1H-pyrazolo[3′,4′:4,5]thieno[2,3-b]pyridin-3-amine] | 80 | 6.51 | 0.31 |
| Cc1cc(C)c2c(n1)sc1c(NCc3ccsc3)nn(C)c12 [Compound 80, 1,6,8-trimethyl-N-(thiophen-3-ylmethyl)-1H-pyrazolo[3′,4′:4,5]thieno[2,3-b]pyridin-3-amine] | 71 | 7.21 | 0.062 |
| Cc1cc(C)c2c(n1)sc1c(NCc3csc(C)n3)nn(C)c12 [Compound 82, 1,6,8-trimethyl-N-((2-methylthiazol-4-yl)methyl)-1H-pyrazolo[3′,4′:4,5]thieno[2,3-b]pyridin-3-amine] | 63 | 6.41 | 0.39 |
| Cc1cc(C)c2c(n1)sc1c(NCC3CCCO3)nn(C)c12 (stereo not drawn) [Compound 83, 1,6,8-trimethyl-N-((tetrahydrofuran-2-yl)methyl)-1H-pyrazolo[3′,4′:4,5]thieno[2,3-b]pyridin-3-amine] | 52 | 6.02 | 0.96 |
| Cc1cc(C)c2c(n1)sc1c(NCc3cccc4c3OCO4)nn(C)c12 [Compound 84, N-(benzo[d][1,3]dioxol-4-ylmethyl)-1,6,8-trimethyl-1H-pyrazolo[3′,4′:4,5]thieno[2,3-b]pyridin-3-amine] | 50 | 6.72 | 0.19 |
| Cc1cc(C)c2c(n1)sc1c(NCC3CCCN3)nn(C)c12 (stereo not drawn) [Compound 86, 1,6,8-trimethyl-N-(pyrrolidin-2-ylmethyl)-1H-pyrazolo[3′,4′:4,5]thieno[2,3-b]pyridin-3-amine] | 40 | 5.96 | 1.1 |
| Cc1cc(C)c2c(n1)sc1c(NCc3ccc4c(c3)OCCO4)nn(C)c12 [Compound 87, N-((2,3-dihydrobenzo[b][1,4]dioxin-6-yl)methyl)-1,6,8-trimethyl-1H-pyrazolo[3′,4′:4,5]thieno[2,3-b]pyridin-3-amine] | 66 | 6.80 | 0.16 |
| Cc1cc(C)c2c(n1)sc1c(NCc3ccc4[nH]ccc4c3)nn(C)c12 [Compound 88, N-((1H-indo1-5-yl)methyl)-1,6,8-trimethyl-1H-pyrazolo[3′,4′:4,5]thieno[2,3-b]pyridin-3-amine] | 67 | 5.89 | 1.3 |
| Cc1cc(C)c2c(n1)sc1c(NCc3cc(C#N)ccc3F)nn(C)c12 [Compound 91, 4-fluoro-3-(((1,6,8-trimethyl-1H-pyrazolo[3′,4′:4,5]thieno[2,3-b]pyridin-3-yl)amino)methyl)benzonitrile] | 57 | 6.66 | 0.22 |
| Cc1cc(C)c2c(n1)sc1c(NCc3[nH]cnc3C)nn(C)c12 [Compound 92, 1,6,8-trimethyl-N-((4-methyl-1H-imidazol-5-yl)methyl)-1H-pyrazolo[3′,4′:4,5]thieno[2,3-b]pyridin-3-amine] | 50 | 6.37 | 0.43 |
| Cc1cc(C)c2c(n1)sc1c(NCc3ccc(S(C)(=O)=O)c(F)c3)nn(C)c12 [Compound 94, N-(3-fluoro-4-(methylsulfonyl)benzyl)-1,6,8-trimethyl-1H-pyrazolo[3′,4′:4,5]thieno[2,3-b]pyridin-3-amine] | 74 | 7.09 | 0.081 |
| Cc1cc(C)c2c(n1)sc1c(NCc3ccco3)nn(CCO)c12 [Compound 95, 2-(3-((furan-2-ylmethyl)amino)-6,8-dimethyl-1H-pyrazolo[3′,4′:4,5]thieno[2,3-b]pyridin-1-yl)ethanol] | 67 | 6.92 | 0.12 |
| Cc1cc(C)c2c(n1)sc1c(N)nn(CCO)c12 [Compound 96, 2-(3-amino-6,8-dimethyl-1H-pyrazolo[3′,4′:4,5]thieno[2,3-b]pyridin-1-yl)ethanol] | 37 | 5.27 | 5.4 |

The remaining lines, values ahead:

| Emax (%)* [%] | pEC50 | EC50 [µM] | Structure (SMILES) |
| --- | --- | --- | --- |
| 77 | 5.89 | 1.3 | Cc1ccnc2sc3c(NCC4CC4)nn(C)c3c12 [Compound 69, N-(cyclopropylmethyl)-1,8-dimethyl-1H-pyrazolo[3′,4′:4,5]thieno[2,3-b]pyridin-3-amine] |
| 66 | 6.00 | 1 | Cc1ccnc2sc3c(NCc4ccco4)nn(C)c3c12 [Compound 71, N-(furan-2-ylmethyl)-1,8-dimethyl-1H-pyrazolo[3′,4′:4,5]thieno[2,3-b]pyridin-3-amine] |
| 59 | 5.74 | 1.8 | COc1ccc(CNc2n[nH]c3c2sc2nc(C)ccc23)cc1 [Compound 72, N-(4-methoxybenzyl)-6-methyl-1H-pyrazolo[3′,4′:4,5]thieno[2,3-b]pyridin-3-amine] |
| 52 | 5.52 | 3 | Cc1cc(C)c2c(n1)sc1c(NC3CCN(C)CC3)nn(C)c12 [Compound 74, 1,6,8-trimethyl-N-(1-methylpiperidin-4-yl)-1H-pyrazolo[3′,4′:4,5]thieno[2,3-b]pyridin-3-amine] |
| 73 | 6.60 | 0.25 | Cc1cc(C)c2c(n1)sc1c(NCc3ccc(S(C)(=O)=O)cc3)nn(C)c12 [Compound 75, 1,6,8-trimethyl-N-(4-(methylsulfonyl)benzyl)-1H-pyrazolo[3′,4′:4,5]thieno[2,3-b]pyridin-3-amine] |
| 77 | 7.16 | 0.069 | Cc1cc(C)c2c(n1)sc1c(NCc3ccoc3)nn(C)c12 [Compound 81, N-(furan-3-ylmethyl)-1,6,8-trimethyl-1H-pyrazolo[3′,4′:4,5]thieno[2,3-b]pyridin-3-amine] |
| 37 | 5.48 | 3.3 | Cc1cc(C)c2c(n1)sc1c(NCC3CCCN3C(=O)OC(C)(C)C)nn(C)c12 (stereo not drawn) [Compound 85, tert-butyl 2-(((1,6,8-trimethyl-1H-pyrazolo[3′,4′:4,5]thieno[2,3-b]pyridin-3-yl)amino)methyl)pyrrolidine-1-carboxylate] |
| 51 | <5.00 | > 10 | Cc1cc(C)c2c(n1)sc1c(NCc3cc4ccccc4n3C)nn(C)c12 [Compound 89, 1,6,8-trimethyl-N-((1-methyl-1H-indo1-2-yl)methyl)-1H-pyrazolo[3′,4′:4,5]thieno[2,3-b]pyridin-3-amine] |
| 52 | 6.60 | 0.25 | Cc1cc(C)c2c(n1)sc1c(NCc3ccc(C#N)c(F)c3)nn(C)c12 [Compound 90, 2-fluoro-4-(((1,6,8-trimethyl-1H-pyrazolo[3′,4′:4,5]thieno[2,3-b]pyridin-3-yl)amino)methyl)benzonitrile] |
| 53 | 7.42 | 0.038 | Cc1cc(C)c2c(n1)sc1c(NCc3scnc3C)nn(C)c12 [Compound 93, 1,6,8-trimethyl-N-((4-methylthiazol-5-yl)methyl)-1H-pyrazolo[3′,4′:4,5]thieno[2,3-b]pyridin-3-amine] |
